Laboratory results published in the supplement of paper PMC8671470.

Columns and labels:
Conditions in all cases: 72 h
KCL-22 [1] = test system: KCL-22
In short: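 For the IC50, dose–response curves were fitted with a log-logistic model. The data came from fifteen myeloid leukaemia cell lines grown in RPMI 1640 at densities in the linear growth range and incubated in 384-well plates for 72 h at 37 °C under 5% CO2. Doses were five tenfold steps from 1 to 10,000 nM in duplicate, and luminescent ATP viability was normalised to vehicle and to a positive control at 10 µM before four-parameter fitting.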

HL-60 [2] = experiment: cell viability (% survival relative to DMSO control); higher = less cytotoxic
In short: (§1)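 A rescreen of the full library used HL-60 cells in RPMI 1640 with 10% FBS on 384-well plates, run in duplicate at five tenfold concentrations (1–10,000 nM). Each screen included DMSO or 100 nM of one of three metabolic inhibitors and ran 72 h at 37 °C, 5% CO2. CellTiter-Glo viability was scaled between DMSO and 10 μM proteasome-inhibitor wells. Any area under the curve comes from four-parameter log-logistic fits with drc and PharmacoGx.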

BV-173 = experiment: cell viability (% survival relative to DMSO control, bortezomib = 0%); higher = less cytotoxic
In short: (§2)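 In 384-well plates pre-printed with compounds at 1, 10, 100, 1000 or 10000 nM, duplicate wells received cells from 10 AML and 5 CML lines at densities within the linear growth range. The plates stayed at 37 °C with 5% CO2 for 72 h before CellTiter-Glo luminescence was recorded. Each entry is averaged percent survival. Scaling placed vehicle at 100% and a 10 µM positive control at 0%.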

HEL = experiment: as above
In short: as §2

HL-60 [3] = experiment: as above
In short: as §2

K-562 = experiment: as above
In short: as §2

KCL-22 [4] = experiment: as above
In short: as §2

KG-1 = experiment: as above
In short: as §2

KU-812 = experiment: as above
In short: as §2

LAMA-84 = experiment: as above
In short: as §2

ML-2 = experiment: as above
In short: as §2

MOLM-13 = experiment: as above
In short: as §2

MV4-11 = experiment: as above
In short: as §2

Mono-Mac-6 = experiment: as above
In short: as §2

NOMO-1 = experiment: as above
In short: as §2

SHI-1 = experiment: as above
In short: as §2

THP-1 = experiment: as above
In short: as §2

HL-60 [5] = experiment: area under dose-response curve (viability, 1 nM-10 uM) (fraction (0-1)); higher = more sensitive
In short: as §1

O=C(NCCCCCCNC(=O)ONC1=CCCCC1)ONC1=CCCCC1
Conditions | IC50 (cell viability) [µM]
KCL-22 [1] | > 10

cell viability [%], HL-60 [2]
Conditions | 0.001 µM | 0.01 µM | 0.1 µM | 1 µM | 10 µM
co-treatment: AZD3965 100 nM | 99.5 | 99 | 99.3 | 100.9 | 98.9
co-treatment: DMSO vehicle | 97 | 99.2 | 96.8 | 102 | 97.3
co-treatment: GSK2194069 100 nM | 99.1 | 101 | 70.1 | 87.3 | 105
co-treatment: pictilisib 100 nM | 105 | 102 | 104 | 95 | 86.2

Conditions | area under dose-response curve, co-treatment: AZD3965 100 nM | area under dose-response curve, co-treatment: DMSO vehicle | area under dose-response curve, co-treatment: GSK2194069 100 nM | area under dose-response curve, co-treatment: pictilisib 100 nM | cell viability, 1 nM [%] | cell viability, 10 nM [%] | cell viability, 100 nM [%] | cell viability, 1000 nM [%] | cell viability, 10000 nM [%]
BV-173 | – | – | – | – | 89.4 | 107 | 114 | 110 | 95.2
HEL | – | – | – | – | 90.8 | 104 | 117 | 113 | 90.9
HL-60 [3] | – | – | – | – | 106 | 107 | 124 | 111 | 93.8
HL-60 [5] | < 0.0301 | < 0.0301 | < 0.0301 | < 0.0301 | – | – | – | – | –
K-562 | – | – | – | – | 97.9 | 120 | 116 | 101 | 89.5
KCL-22 [4] | – | – | – | – | 106 | 100 | 115 | 102 | 94.6
KG-1 | – | – | – | – | 90.4 | 122 | 114 | 92.8 | 90.4
KU-812 | – | – | – | – | 104 | 110 | 113 | 101 | 92.4
LAMA-84 | – | – | – | – | 104 | 103 | 112 | 101 | 103
ML-2 | – | – | – | – | 94.8 | 107 | 108 | 107 | 99.1
MOLM-13 | – | – | – | – | 118 | 97 | 109 | 98.7 | 86
MV4-11 | – | – | – | – | 91.1 | 104 | 106 | 100 | 96.3
Mono-Mac-6 | – | – | – | – | 90.6 | 110 | 103 | 98.8 | 102
NOMO-1 | – | – | – | – | 98.9 | 117 | 112 | 112 | 102
SHI-1 | – | – | – | – | 98.7 | 103 | 112 | 112 | 97.3
THP-1 | – | – | – | – | 89.4 | 114 | 109 | 97.4 | 100
